# Patent US11912645B2, “Lipopeptide compounds for the treatment of pain disorders” (INSERM (Institut National de la Santé et de la Recherche …, priority 2017, dated 2024)
# Legend:
# [1] = tested on: capsaicin-induced visceral hypersensitivity; experiment: Capsaicin-induced visceral hypersensitivity, visceromotor response to colorectal distension; format: in vivo, mouse
# Protocol: FIG. 6: C12-Asn-GABA inhibits capsaicin-induced visceral hypersensitivity without altering Intestinal contraction. Mice received intracolonic administration of C12-Asn-GABA (10 μM; black symbols) or vehicle (40% ethanol; white symbols) and 30 minutes or 4 hours later colon (A) and blood (B) were harvested in order to quantify C12-Asn-GABA by LC-MS/MS. Data are expressed as mean±SEM, n=8 mice per group. […] Mice received intracolonic administration of C12-Asn-GABA (10 μM; black symbols) or vehicle (40% ethanol; white symbols) and 30 minutes or 4 hours later an intracolonic administration of capsaicin (100 μg/mouse; square) or its vehicle (40% ethanol; circle). Fifteen minutes after capsaicin or vehicle treatment, visceromotor response (VMR) to increasing pressures of colorectal distension was performed. Data are expressed as mean±SEM, n=7-8 mice per group. […] Ex vivo measurement of duodenal mechanical contraction frequency (B) and amplitude (C) in response to Krebs-Ringer solution (control; white bar), to DMSO 0.2% (vehicle; gray bar) or to C12-Asn-GABA (10 μM; black bar). Data are expressed as mean±SEM, n=5-6 per group. Statistical analysis was performed using Kruskal-Wallis analysis of variance and subsequent Dunn's post hoc test.
# FIG. 8: Trimebutine maleate has no effect on capsaicin-induced visceral hypersensitivity. Mice received an oral treatment with vehicle (PEG200, white circle) or with trimebutine maleate (25 mg/kg, black circle) and 4 hours later an intracolonic administration of capsaicin (100 μg/mouse; black and white circle). Fifteen minutes after capsaicin, visceromotor response (VMR) to increasing pressures of colorectal distension was performed. Data are expressed as mean±SEM, n=7-8 mice per group. […]
# In a first set of experiment, we assessed the ability of the C12-Asn-GABA to cross the epithelial barrier, in vivo. […] The impact of C12-Asn-GABA on visceral hypersensitivity was assessed by measuring the visceromotor responses (VMR) to colorectal distension (CRD). […]
# Caco-2 cells = experiment: Absorption across Caco-2 monolayer in transwell chambers; format: in vitro ADME, human; settings: 800 ng apical
# Protocol: FIG. 5: C12-Asn-GABA crosses the epithelial barrier without modifying epithelial cells physiology. Caco-2 cells were cultivated into transwell chambers. After treatment with C12-Asn-GABA (800 ng) at the apical side, C12-Asn-GABA was quantified inside the cells and both the apical and basolateral compartments by LC-MS/MS (A); data are represented as mean±SEM, n=3 experiments of 3 wells per condition. Extracted ion chromatogram at the exact mass of GABA (104.0702 m/z) with a mass accuracy of 5 ppm of the GABA commercial standard (GABA (Std.) and apical and basolateral compartments after loading or not Caco-2 cells with 800 ng of GABA at the apical site (B); representation of one well, n=3 experiments of 3 wells per condition. Paracellular permeability assessed by the passage of FITC-dextran loaded at the apical side (C) and CXCL8 secretion assessed by ELISA (D) were monitored after treatment of Caco-2 cells at the apical side with C12-Asn-GABA (10 μM); data are represented as mean±SEM, n=3 experiments of 3 wells per condition. […]
# Caco-2 cells were grown in Glutamax DMEM (Gibco, Invitrogen life technologies, Paisley, UK) supplemented with 10% heat-inactivated fetal bovine serum (FBS) (Gibco, Invitrogen life technologies, Paisley, UK), 1% nonessential amino acids and 1% antibiotics (100 U/ml penicillin and […] streptomycin (Gibco, Invitrogen life technologies, Grand Island, N.Y., USA) at 37° C. in a 5% C02 water-saturated atmosphere. Cells were seeded on Transwell inserts (Costar, Sigma-Aldrich, Saint-Quentin Fallavier, France) and absorption studies of C12-Asn-GABA and GABA were performed 16 days later. These compounds were quantified by LC-MS/MS in both apical and basolateral chambers as well as in cells. The effect of C12-Asn-GABA (1-100 μM) on paracellular permeability was also measured by mucosal-to-serosal flux of 4 kDa Fluorescein Isothiocyanate (FITC)-labelled dextran as previously described^31. […]
# The initial barrier for any drug absorption is the intestinal epithelial cell wall. […] The transport of GABA alone across the cell monolayer was also assessed. […]
smiles,measurement,setting,value
"CCCCCCCCCCCC(=O)NC(CC(N)=O)C(=O)NCCCC(=O)O (stereo not shown) [C12-Asn-GABA, C11 C(O)-Asn-gamma-aminobutyric acid]",capsaicin-evoked increase in VMR to CRD,"[1]; 100 μL intracolonic 10 μM pretreatment, capsaicin 100 μg/animal, CRD 15-60 mm Hg",significantly prevented for all distension pressures
same,visceral sensitivity in response to CRD in the absence of capsaicin,"[1]; intracolonic 10 μM, no capsaicin",did not modify visceral sensitivity
same,fraction of apically added compound found in the basolateral chamber,"Caco-2 cells; 24 h, LC-MS/MS",approximately 50%
same,level in epithelial cells,Caco-2 cells; 24 h of incubation,low levels
